What was measured:
[1] = test system: glucose transporter (mature adipocytes); assay: Influence of cytochalasin B on 2-deoxyglucose uptake in mature adipocytes; assay type: cell-based; details: cytochalasin B 40 μM, in every group (polygodial 3 μM, insulin 1 μg/mL, negative control)
Experimental: Specifically, as a sample, there was set a group with addition of a dimethyl sulfoxide solution of polygodial so as to have a final concentration of 3 μM. […] Furthermore, in each group, there was set a group with addition of cytochalasin B (manufactured by Nacalai Tesque, Inc., 10435-81) so as to have a final concentration 40 μM at the same time as the time of addition of the sample and insulin. Thereafter, the amount of 2-deoxy-[1,2-^3H(N)]-glucose taken into the adipocytes was determined in the same manner.

mouse = assay: Single-dose oral toxicity in mouse; assay type: in vivo; details: 1 g/kg weight
Experimental: No toxicity is found even when the above-mentioned effective ingredient used in the present invention is administered in an effective dose for the exhibition of its action.

3T3-L1 cells = assay: Inducing action on differentiation into adipocytes: amount of triglyceride in the adipocytes; assay type: cell-based
Experimental: Induction of differentiation into adipocytes was carried out by partially modifying the above-mentioned method of Rubin C. S. et al. In addition, as a compound (P001), a compound prepared in Example 4 was used. 3T3-L1 cells were suspended in a 10% (w/v) calf serum-containing Dulbecco's modified Eagle's medium containing 200 μM ascorbic acid so as to have a density of 4×10^3 cells/mL, and the suspension was put in each well of a 12-well microtiter plate in an amount of 2 mL per well. The cells were cultured at 37° C. for 7 days in the presence of 5% carbon dioxide gas. On the seventh day, the medium was exchanged with a 10% fetal bovine serum-containing Dulbecco's modified Eagle's medium containing 200 μM ascorbic acid and 0.25 μM dexamethasone, and 4 μL of a 15 mM dimethyl sulfoxide solution of the compound (P001), a 5 mM dimethyl sulfoxide solution of the compound (P001), or a 1.5 mM dimethyl sulfoxide solution of the compound (P001) was added to each well. Here, there were set a group with addition of 4 μL of a 5 mg/mL aqueous solution of insulin as a positive control, and a group with addition of dimethyl sulfoxide as a negative control. After 48 hours, the medium was exchanged with a 10% fetal bovine serum-containing Dulbecco's modified Eagle's medium containing 200 μM ascorbic acid, and 4 μL of a 15 mM dimethyl sulfoxide solution of the compound (P001), a 5 mM dimethyl sulfoxide solution of the compound (P001), or a 1.5 mM dimethyl sulfoxide solution of the compound (P001), a group with addition of 2 μL of a 5 mg/mL aqueous solution of insulin as a positive control, or a group with addition of dimethyl sulfoxide as a negative control was put to each well. The cells were cultured for additional 7 days. Here, the medium was exchanged after 2 days and after 5 days, and at that time, 4 μL of a 15 mM dimethyl sulfoxide solution of the compound (P001), a 5 mM dimethyl sulfoxide solution of the compound (P001), or a 1.5 mM dimethyl sulfoxide solution of the compound (P001), a group with addition of 2 μL of a 5 mg/mL aqueous solution of insulin as a positive control, or a group with addition of dimethyl sulfoxide as a negative control was put to each well. […]
The amount of triglyceride in the adipocytes was determined as an index for inducing differentiation into mature adipocytes, and also as the evaluation of insulin-mimetic action.
After the termination of the culture, the medium was removed, and the cells were washed twice with a phosphate buffered saline. One milliliter of a solvent of hexane:isopropanol=3:2 was added to the cells. The mixture was allowed to stand at room temperature for 30 minutes, and thereafter the supernatant was collected. The procedures were repeated again, and 2 mL of the supernatant was concentrated to dryness. The precipitates were dissolved in 100 μL of isopropanol, and the amount of triglyceride contained in 10 μL of the solution was determined using a triglyceride E-test (manufactured by Wako Pure Chemical Industries, Ltd., code 432-40201). In addition, all the determinations were carried out twice.

[2] = test system: mature adipocytes (3T3-L1 cells); assay: Enhancing action on glucose uptake: 2-deoxyglucose uptake into mature adipocytes; assay type: cell-based
Experimental: The induction of differentiation into mature adipocytes was carried out by partially modifying the method of Rubin C. S. et al. (JBC. 253 7570-7578, 1978). 3T3-L1 cells (ATCC CCL-92.1) were suspended in a 10% calf serum (manufactured by ICN)-containing Dulbecco's modified Eagle's medium (manufactured by Sigma, D6046) containing 200 μM ascorbic acid so as to have a density of 4×10^3 cells/mL, and the suspension was put in each well of a 12-well microtiter plate in an amount of 2 mL per well. The cells were cultured at 37° C. for 7 days in the presence of 5% carbon dioxide gas. On the seventh day, the medium was exchanged with […] of a 10% fetal bovine serum (manufactured by GIBCO)-containing Dulbecco's modified Eagle's medium containing 200 μM ascorbic acid, 0.25 μM dexamethasone, 10 μg/mL insulin (manufactured by TAKARA BIO INC.) and 0.5 mM 3-isobutyl-1-methylxanthine (manufactured by Nacalai Tesque, Inc., 19624-86). After 45 hours, the medium was exchanged with 2 mL of a 10% fetal bovine serum-containing Dulbecco's modified Eagle's medium containing 200 μM ascorbic acid and 5 μg/mL insulin. The medium was exchanged on after 2 days and 5 days, and the cells were cultured for 7 days, to give mature adipocytes.
As the evaluation of enhancing action on glucose uptake, and also as the evaluation of insulin-mimetic action, the amount of 2-deoxyglucose uptake into mature adipocytes stimulated with the sample in the adipocytes was determined.
After the termination of the culture, the medium was removed, and the cells were washed twice with a 0.1% (w/v) bovine serum albumin (manufactured by Sigma, A8022)-containing Dulbecco's modified Eagle's medium. Thereafter, 1 mL of the same medium was put to each well. The cells were cultured overnight at 37° C. in the presence of 5% carbon dioxide gas. After the overnight culture, the cells were washed twice with a HEPES buffered saline (140 mM NaCl, 5 mM KCl, 2.5 mM MgSO4, 1 mM CaCl2, 20 mM HEPES-Na (pH 7.4)), and 0.9 mL of the same buffer was added thereto. The cells were cultured at 37° C. for 75 minutes. […] […] Thereafter, 100 μL of a HEPES buffered saline containing 2-deoxy-[1,2-^3H(N)]-glucose (manufactured by PerkinElmer Life Sciences Inc., NET549A) and 1 mM 2-deoxyglucose (manufactured by Nacalai Tesque, Inc., 10722-11) was added thereto at a final concentration of 0.5 μCi/mL, and the cells were further cultured at 37° C. for 10 minutes. After the termination of the culture, the supernatant was removed, the cells were washed three times with a phosphate buffer cooled to 4° C., and 0.5 mL of a 1% Nonidet P-40-containing phosphate buffer was added to lyse the cells, whereby 2-deoxy-[1,2-^3H(N)]-glucose taken into the cells was eluted. The radioactivity was determined with a liquid scintillation counter LS6500 (manufactured by Beckmann) using 25 μL of the supernatant with Ultima Gold (manufactured by PerkinElmer Life Sciences Inc., 6013329) as a scintillation cocktail.

[3] = final concentration 30 μM, 10 μM or 3 μM
[4] = final concentration 10 μM, 3 μM or 1 μM, FIG. 2, FIG. 3

## C=C1[C@@H](C)[C@H]2[C@H](Cc3ccccc3)NC(=O)[C@]23OC(=O)/C=C/[C@H](O)CCC[C@@H](C)C/C=C/[C@H]3[C@@H]1O [cytochalasin B, reference compound]
[1]
  2-deoxy-[1,2-3H(N)]-glucose uptake on addition of cytochalasin B: almost completely inhibited

## CC1(C)CCCC2(C)C(CO)C(CO)=CCC12 (stereo not shown) [P005, 1,4,4a,5,6,7,8,8a-octahydro-5,5,8a-trimethyl-1,2-naphthalenedimethanol]
mouse
  deaths after oral administration: no cases of deaths are found
3T3-L1 cells; final concentration 30 μM or 10 μM, FIG. 14
  biosynthesis of triglyceride (index of differentiation into mature adipocytes): induction of biosynthesis of triglyceride was found

## COC(=O)C1=C(C(=O)OC)C2(C)CCCC(C)(C)C2=CC1 (stereo not shown) [P001, dimethyl 3,5,6,7,8,8a-hexahydro-5,5,8a-trimethyl-1,2-naphthalenedicarboxylate]
mouse
  deaths after oral administration: no cases of deaths are found
3T3-L1 cells; [3]
  biosynthesis of triglyceride (index of differentiation into mature adipocytes): induction of biosynthesis of triglyceride was found

## CC(=O)OCC1=CCC2C(C)(C)CCCC2(C)C1C=O (stereo not shown) [P007, 1-[(acetyloxy)methyl]-1,4,4a,5,6,7,8,8a-octahydro-5,5,8a-trimethyl-2-naphthalenecarboxyaldehyde]
mouse
  deaths after oral administration: no cases of deaths are found
3T3-L1 cells; [3]
  biosynthesis of triglyceride (index of differentiation into mature adipocytes): induction of biosynthesis of triglyceride was found

## CC1(C)C[C@H]2C=C(C=O)[C@]3(C=O)C[C@]3(C)[C@H]2C1 [isovelleral]
mouse
  deaths after oral administration: no cases of deaths are found
[2]; final concentration 3 μM or 1 μM, FIG. 24
  2-deoxy-[1,2-3H(N)]-glucose uptake compared to the negative control: enhancement of 2-deoxy-[1,2-^3H(N)]-glucose uptake was found

## CC1(C)CCCC2(C)C1=CCC(CO)=C2CO (stereo not shown) [P002, 3,5,6,7,8,8a-hexahydro-5,5,8a-trimethyl-1,2-naphthalenedimethanol]
mouse
  deaths after oral administration: no cases of deaths are found
3T3-L1 cells; final concentration 30 μM or 3 μM, FIG. 7
  biosynthesis of triglyceride (index of differentiation into mature adipocytes): induction of biosynthesis of triglyceride was found

## CC(=O)OCC1=CCC2C(C)(C)CCCC2(C)C1C=O (stereo not shown) [P008, 2-[(acetyloxy)methyl]-1,4,4a,5,6,7,8,8a-octahydro-5,5,8a-trimethyl-1-naphthalenecarboxyaldehyde]
mouse
  deaths after oral administration: no cases of deaths are found
3T3-L1 cells; final concentration 10 μM or 3 μM, FIG. 20
  biosynthesis of triglyceride (index of differentiation into mature adipocytes): induction of biosynthesis of triglyceride was found

## CC1(C)CCCC2(C)C1CCC1(CO1)C2C/C=C(/C=O)CC=O (stereo not shown) [miogadial]
mouse
  deaths after oral administration: no cases of deaths are found

## COC(=O)C1=CCC2C(C)(C)CCCC2(C)C1C(=O)OC (stereo not shown) [P004, dimethyl 1,4,4a,5,6,7,8,8a-octahydro-5,5,8a-trimethyl-1,2-naphthalenedicarboxylate]
mouse
  deaths after oral administration: no cases of deaths are found
3T3-L1 cells; final concentration 10 μM, 3 μM or 1 μM, FIG. 12
  biosynthesis of triglyceride (index of differentiation into mature adipocytes): induction of biosynthesis of triglyceride was found
[2]; final concentration 30 μM, 10 μM or 3 μM, FIG. 11
  2-deoxy-[1,2-3H(N)]-glucose uptake compared to the negative control: enhancement of 2-deoxy-[1,2-H(N)]-glucose uptake was found

## CC1(C)CCCC2(C)C3COC(=O)C3=CCC12 (stereo not shown) [P006, 5,5a,6,7,8,9,9a,9b-octahydro-6,6,9a-trimethyl-naphtho[1,2-c]furan-3(1H)-one]
mouse
  deaths after oral administration: no cases of deaths are found
3T3-L1 cells; [3]
  biosynthesis of triglyceride (index of differentiation into mature adipocytes): induction of biosynthesis of triglyceride was found

## CC1(C)CCC[C@]2(C)[C@H](C=O)C(C=O)=CC[C@@H]12 [epipolygodial]
mouse
  deaths after oral administration: no cases of deaths are found
[2]; final concentration 3 μM, 1 μM or 0.3 μM, FIG. 25
  2-deoxy-[1,2-3H(N)]-glucose uptake compared to the negative control: enhancement of 2-deoxy-[1,2-^3H(N)]-glucose uptake was found

## CC(=O)O[C@@H]1C[C@@H]2[C@@]3(C)CCCC(C)(C)[C@@H]3CC[C@@]2(C)[C@@H]2CC=C(C=O)[C@H](C=O)[C@@]12C [12-epi-scalaradial]
mouse
  deaths after oral administration: no cases of deaths are found
[2]; [4]
  2-deoxy-[1,2-3H(N)]-glucose uptake compared to the negative control: enhancement of 2-deoxy-[1,2-^3H(N)]-glucose uptake was found

## O=Cc1cc2ccccc2cc1C=O [naphthalene-2,3-dicarboxyaldehyde]
mouse
  deaths after oral administration: no cases of deaths are found
[2]; [4]
  2-deoxy-[1,2-3H(N)]-glucose uptake compared to the negative control: enhancement of 2-deoxy-[1,2-^3H(N)]-glucose uptake was found

## CC1(C)CCCC2(C)C1=CCC1=C2C(=O)OC1 (stereo not shown) [P003, 4,6,7,8,9,9a-hexahydro-6,6,9a-trimethyl-naphtho[1,2-c]furan-1(3H)-one]
mouse
  deaths after oral administration: no cases of deaths are found
3T3-L1 cells; [3]
  biosynthesis of triglyceride (index of differentiation into mature adipocytes): induction of biosynthesis of triglyceride was found
[2]; final concentration 30 μM or 10 μM, sample added at each exchange of BSA medium or HEPES buffered saline, FIG. 23
  2-deoxy-[1,2-3H(N)]-glucose uptake compared to the negative control: enhancement of 2-deoxy-[1,2-^3H(N)]-glucose uptake was found
